# Measured values from patent publication US10799501B2, “Combination of an inhibitor of PARP with an inhibitor of GSK-3 or DOT1L” (King's College London, priority 2015, dated 2020).
# Tests used:
# [1] = test system: E2A-PBX transformed cells; test: In vitro drug treatment of primary murine hematopoietic cells transformed by E2A-PBX (RTTA); assay type: cell-based, mouse
# Method: Transduction using concentrated viral supernatant expressing the oncogene of interest was carried out by centrifugation (spinoculation) at 800 g at 32° C. for 2 hours in the presence of 5 μg ml^-1 polybrene (Sigma-Aldrich). Cells were subsequently plated in 1% methylcellulose medium ([…]; Stem Cell Technologies) containing 20 ngml^-1 SCF, 10 ngml^-1 IL-3, 10 ngml^-1 IL-6 and 10 ngml^-1 granulocyte macrophage colony-stimulating factor (GM-CSF) and appropriate selection antibiotic. Colonies were counted after 7 days of culture and replated every 6-7 days at 5×103-1.5×10^4 cell density. Re-plating was performed weekly to generate primary cell lines for further analysis. After the third or fourth round of plating, cells were cultured in R20/20 medium (RPMI 1640, 20% FCS, 20% WEHI-conditioned medium, 2 mM L-glutamine, 100 U/ml penicillin, and 100 μg/ml streptomycin) supplemented with 20 ngml^-1 stem cell factor (SCF), 10 ngml^-1 interleukin (IL)-3, and 10 ngml^-1 IL-6 to establish cell lines. All recombinant murine cytokines were from PeprotechEC. […] Colonies were scored 6-7 days after plating. For other in vitro studies, mouse leukemic cells and primary AML cell lines were subjected to continuously Olaparib (1 μM) or LiCl (8 mM) treatment in liquid culture for whole duration as indicated in the figures or figure legends. For human leukemic cell lines, experiments were performed as described above with 5 μM Olaparib. […] Cells were counted in at least 5 fields for each slide, for a total of over 100 cells. The percentage of senescent cells was calculated by the percentage of the number of blue cell in the field. […] Cells were counted in at least 5 fields for each slide, for a total of over 100 cells per condition. […] Cells were counted in at least 5 fields for each slide, for a total of over 100 cells per condition. […] Cells were then washed in PBS and the differentiated cells were indicated by the deposition of dark blue insoluble formazan (NBT positive cells) and the percentage of differentiated cells were counted under microscopy. At least 200 cells were counted in most of the cases.
# [2] = test system: MLL-AF9 LSC; test: C57Bl6 mice transplanted with pretreated MLL-AF9 LSC, PARPi and GSK3i treatment; assay type: in vivo, mouse
# Method: For mouse MLL-AF9 LSC in vivo studies involving PARPi and GSK3i, MLL-AF9 LSC were pretreated in R20/20 with 4 mM LiCl or 1 uM Olaparib or combination for 3 days. Equal number 0.2×10^6 of live cells were transplanted into sublethally irradiated C57Bl6 mice. Continuous Olaparib and LiCO3 treatment was commenced on the day after irradiation and injection of cells. Mice were given 0.4% lithium carbonate containing diet (Harlan Laboratory) along with Olaparib by IP every other day for 4 weeks. The engraftment of mouse donor cells was defined as CD45.1+/CD45.2− by FACS.
# [3] = test system: MLL-AF9 transformed cells; test: In vitro drug treatment of primary murine hematopoietic cells transformed by MLL-AF9 (RTTA); assay type: cell-based, mouse
# Method: Transduction using concentrated viral supernatant expressing the oncogene of interest was carried out by centrifugation (spinoculation) at 800 g at 32° C. for 2 hours in the presence of 5 μg ml^-1 polybrene (Sigma-Aldrich). Cells were subsequently plated in 1% methylcellulose medium ([…]; Stem Cell Technologies) containing 20 ngml^-1 SCF, 10 ngml^-1 IL-3, 10 ngml^-1 IL-6 and 10 ngml^-1 granulocyte macrophage colony-stimulating factor (GM-CSF) and appropriate selection antibiotic. Colonies were counted after 7 days of culture and replated every 6-7 days at 5×103-1.5×10^4 cell density. Re-plating was performed weekly to generate primary cell lines for further analysis. After the third or fourth round of plating, cells were cultured in R20/20 medium (RPMI 1640, 20% FCS, 20% WEHI-conditioned medium, 2 mM L-glutamine, 100 U/ml penicillin, and 100 μg/ml streptomycin) supplemented with 20 ngml^-1 stem cell factor (SCF), 10 ngml^-1 interleukin (IL)-3, and 10 ngml^-1 IL-6 to establish cell lines. All recombinant murine cytokines were from PeprotechEC. […] Colonies were scored 6-7 days after plating. For other in vitro studies, mouse leukemic cells and primary AML cell lines were subjected to continuously Olaparib (1 μM) or LiCl (8 mM) treatment in liquid culture for whole duration as indicated in the figures or figure legends. For human leukemic cell lines, experiments were performed as described above with 5 μM Olaparib. Cells were cytospun onto a glass slide at 400 g for 5 minutes and then fixed for 10 minutes with 2% formaldehyde/0.2% glutaraldehyde (Sigma Aldrich). Cells were then washed with PBS, and then incubated at 37° C. for at least 2 hours with a staining solution (30 mM Citric Acid/Phosphate buffer, 5 mM K4Fe(CN)6, 5 mM K3Fe(CN)6, 150 mM NaCl, 2 mM MgCl2, 1 mg/ml X-Gal) (All reagents from Sigma-Aldrich)62. Cells were counted in at least 5 fields for each slide, for a total of over 100 cells. The percentage of senescent cells was calculated by the percentage of the number of blue cell in the field. Cells were cytospun onto a glass slide at 400 g for 5 minutes and then fixed for 30 minutes in 4% PFA and permeabilized and blocked in 0.8% Tx-100, 10% FBS/1% BSA (Sigma-Aldrich) in PBS for 15 min at room temperature. […] Cells were counted in at least 5 fields for each slide, for a total of over 100 cells per condition. […] Cells were counted in at least 5 fields for each slide, for a total of over 100 cells per condition. […] Cells were then washed in PBS and the differentiated cells were indicated by the deposition of dark blue insoluble formazan (NBT positive cells) and the percentage of differentiated cells were counted under microscopy. At least 200 cells were counted in most of the cases.
# [4] = test system: THP1 (MLL-AF9); test: Humanized xenograft: NSG mice transplanted with THP1 cells, Olaparib treatment; assay type: in vivo, mouse
# Method: (§1) We established humanized models of AML1-ETO and PML-RARα leukemia in sub-lethally irradiated NOD/SCID/IL2Rg−/−(NSG, 1 dose 200 RADs) by transplanting 2×10^6 Kasumi (intra-femoral, IF) and 1×10^5 NB4-LR2 or 1×10^5 THP1 (intravenous, IV) cells. The day after the transplantation, mice were split into two groups and given intra-peritoneal injections of vehicle (10% HBC) or Olaparib (25 mg/kg in 10% HBC) daily for 2-4 weeks. The maximum tolerable dose was calculated by in vivo dose-response experiments. Mice were monitored daily until they developed symptoms of leukemia, when they were culled and bone marrow, spleen and liver harvested and analyzed by FACS. The engraftment of human donor cells was defined as human CD45/CD33 double positive by FACS.
# [5] = test system: Kasumi (AML1-ETO); test: Humanized xenograft: NSG mice transplanted with Kasumi cells, Olaparib treatment; assay type: in vivo, mouse
# Method: as §1
# [6] = 1 uM Olaparib, methylcellulose 7 days
# [7] = C57Bl6 mice, MLL-AF9 wild-type leukemia, cells pre-treated 3 days, then in vivo treatment 4 weeks
# [8] = NSG mice succumbed with THP1 driven disease, Olaparib 25 mg/kg i.p. daily
# [9] = NSG mice succumbed with Kasumi driven disease, Olaparib 25 mg/kg i.p. daily
smiles,measurement,setting,value
"O=C(c1cc(Cc2n[nH]c(=O)c3ccccc23)ccc1F)N1CCN(C(=O)C2CC2)CC1 [Olaparib, 4-[(3-[(4-cyclopropylcarbonyl)piperazin-4-yl]carbonyl)-4-fluorophenyl]methyl(2H)-phthalazin-1-one]",impact on colony forming ability,[1]; [6],little impact
same,"differentiation, G1 arrest, senescence, apoptosis effects",[1]; PARPi treatment,none of these effects were observed
same,Rad51 recruitment to DNA damage sites (RAD51 foci),[1]; PARPi treatment for 6 hours,able to form RAD51 foci
same,BM Engraftment (%),[2]; [7],80.23 ± 23.70%
same,Disease Latency (days; median),[2]; [7],45.8 days
same,Hematopoietic Liver Engraftment (%),[2]; [7],76.5 ± 19.21%
same,Hematopoietic Spleen Engraftment (%),[2]; [7],65.07 ± 43.46%
same,Liver,[2]; [7],2.868 ± 0.4089 g
same,Spleen,[2]; [7],1.218 ± 0.3266 g
same,survival,"[2]; pretreated MLL LSC in syngeneic mice, 80 days of observation, controls succumbed within 8 weeks",did not significantly extend the survival
same,impact on colony forming ability,[3]; [6],little impact
same,"differentiation, G1 arrest, senescence, apoptosis effects",[3]; PARPi treatment,none of these effects were observed
same,Rad51 recruitment to DNA damage sites (RAD51 foci),[3]; PARPi treatment for 6 hours,able to form RAD51 foci
same,BM Engraftment (%),[4]; [8],30.7 ± 33.27%
same,Disease Latency (days; median),[4]; [8],81 days
same,Hematopoietic Liver Engraftment (%),[4]; [8],27.81 ± 31.79%
same,Hematopoietic Spleen Engraftment (%),[4]; [8],8.53 ± 6.946%
same,Liver,[4]; [8],1.31 ± 0.153 g
same,Spleen,[4]; [8],0.0822 ± 0.0301 g
same,survival of xenograft model transplanted with human THP1 cells,[4]; THP1 cells carrying MLL-AF9,no effect on the survival
same,BM Engraftment (%),[5]; [9],41.35 ± 27.73%
same,Disease Latency (days; median),[5]; [9],102 days
same,Hematopoietic Liver Engraftment (%),[5]; [9],41.68 ± 26.19%
same,Hematopoietic Spleen Engraftment (%),[5]; [9],48.68 ± 33.71%
same,Liver,[5]; [9],1.999 ± 0.3720 g
same,Spleen,[5]; [9],0.1630 ± 0.1198 g
same,median survival,"[5]; monotherapy, disease onset driven by AML1-ETO, control 55 days",102 days
